Experimental data published in ChEMBL document CHEMBL1158144, “Cacalol derivatives from Roldana angulifolia” (J Nat Prod, 2006).

Assays:
Type in all cases: functional, cell-based
PC-3 = assay: Cytotoxicity against human PC-3 cells
U-251 = assay: Cytotoxicity against human U251 cells
SK-LU-1 = assay: Cytotoxicity against human SKLU1 cells
K562 = assay: Cytotoxicity against human K-562 cells
HCT-15 = assay: Cytotoxicity against human HCT-15 cells
MCF7 = assay: Cytotoxicity against human MCF7 cells

Measured: IC50

COc1c2c(c(C=O)c3c(COC(C)=O)coc13)[C@@H](C)CC=C2
> 10 µM: all assays above

COc1c2c(c(C=O)c3c(CO)coc13)[C@@H](C)CC=C2
> 10 µM: all assays above

COc1c2c3c(c4c(COC(C)=O)coc14)C(=O)OC[C@H]3CC=C2 [ANGULIFOLIDE]
> 10 µM: all assays above
